Measurements as given in a melting point compilation (Tetko et al.).

melting point	Compound
209 °C	C/C(=N\Nc1ccccc1)c1nc2c(ccc3ccccc32)nc1C
252 to 253 °C	NC(Cc1cc(F)ccc1F)C(=O)O (racemic)
60 to 62 °C	COc1ccc(-c2nc(CCl)no2)cc1
114 to 116 °C	Nc1cccnc1N
128 °C	O=C1c2ccccc2CC2c3ccccc3C=CN12 (centres undefined)
146 °C	CN1c2ccccc2Sc2ccc(CC(=O)O)cc21
161 to 162 °C	N#Cc1c(NC(=O)c2ccccc2Cl)sc2c1CCCC2
119 to 121 °C	Cc1ccc(C(=O)C=Cc2ccc(F)cc2)cc1
161 to 163 °C	Cc1csc2nc3ccccc3n12
300 °C	NC(CCc1ccccc1)C(=O)O (single isomer, unassigned; (-))
73 °C	O=C(O)c1cccc(SC(F)(F)F)c1
90 °C	N#Cc1ccc(S(=O)(=O)C(F)(F)F)cc1
92 °C	Cc1oc(C(C)(C)C)cc1C(=O)O
77 °C	O=C1CC(c2ccccc2)c2ccccc21 (centres undefined)
92 °C	Brc1ccc2cc[nH]c2c1
92 to 93 °C	CCOC(=O)c1c(-c2ccccc2)csc1NC(=O)C(Cl)Cl
215 °C	O=C1C(Cl)=C(Nc2ccccc2)C(=O)c2ccccc21
122 °C	COc1cc(C(=O)c2ccccc2Cl)c([N+](=O)[O-])cc1OC
88 to 89 °C	Cc1c(CO)cnn1-c1ccccc1
179 °C	CC(=O)Nc1ccc(C=CC(=O)c2ccccc2)cc1
119 to 121 °C	COc1ccc(C(N)=NO)cc1
25 °C	CCN(CC)C(=O)c1cccnc1

melting point	Compound
76 to 78 °C	CC(C)Cc1ccc(C(C)C(=O)NN)cc1 (centres undefined)
101 °C	CCC(C)(C(N)=O)c1ccccc1 (centres undefined)
90 to 94 °C	O=C(O)C1CCCN(C(=O)OCc2ccccc2)C1 (centres undefined)
140 to 144 °C	N#Cc1ccc([N+](=O)[O-])cc1C#N
143 °C	CC1(C)C(C(=O)OC(C#N)c2cccc(Oc3ccccc3)c2)C1C(Br)C(Br)(Br)Br (centres undefined)
163 to 168 °C	Oc1ccc(Oc2ccc(O)cc2)cc1
140 to 142 °C	O=C(Cl)c1cc(Cl)nc2ccc(Br)cc12
93 °C	COc1cccc(OC)c1Br
158 to 162 °C	CCOC(=O)c1sc(SC)nc1NC(=O)Nc1ccc(Cl)c(Cl)c1
203 to 204 °C	CC(C)(C)NC(=S)c1cc(C(C)(C)C)c(O)c(C(C)(C)C)c1
245 to 263 °C	NC(CO)(Cc1ccccc1)C(=O)O (racemic)
175 to 177 °C	O=C(C=Cc1ccc(Cl)c(Cl)c1)C=Cc1ccc(Cl)c(Cl)c1
226 °C	COc1ccccc1/C=C(\C#N)c1nc2ccccc2n1C
338 °C	O=c1cc[nH]c(=O)[nH]1
275 °C	CC(=O)N1c2cc3[nH]c(C)cc3cc2CC1C (centres undefined)
148 °C	COc1c2occc2cc2ccc(=O)oc12
172 to 174 °C	CC(=O)C1=C(C)C(C)(O)NC1=O (centres undefined)
181 to 182 °C	Cc1c(O)ccc2c1OC(C)(C)CC2=O
-2 °C	COC(=O)c1ccc(C)cc1C
309 to 310 °C	O=C(O)c1cc2cccnc2nc1C(F)(F)F
170 °C	CNCC(O)c1cccc(O)c1 (centres undefined)
190 °C	O=[N+]([O-])c1ccc(N=Nc2ccc(N(CCO)CCO)cc2Cl)cc1

melting point	Compound
266 to 267 °C	O=C1C(=C2C=Cc3ccc(O)cc3N2)C(=O)c2ccccc21
77 to 80 °C	CC1(C)CC(C(=O)Oc2ccc([N+](=O)[O-])cc2)C(C)(C)N1O (centres undefined)
210 °C	O=C1c2ccccc2C(=O)N1c1ccccc1
160 °C	CC(C)c1c(C(=O)Nc2ccccc2)c(-c2ccccc2)c(-c2ccc(F)cc2)n1CCC(O)CC(O)CC(=O)O (centres undefined)
135 to 137 °C	CCOC(=O)C(C#N)=C1Oc2ccccc2N1C
112 °C	COC(=O)C1(S(=O)(=O)c2ccc(Br)cc2)CCCCC1
215 °C	CC(=O)c1ccc(NC(N)=S)cc1
17 °C	c1ccc2c(c1)CNC2
106 °C	Cc1cc(C(=O)NNCc2ccccc2)no1
140 °C	Clc1ncccc1-c1cccc(Br)n1
68 °C	COc1ccc(C(=O)c2ccccc2O)c(O)c1
154 °C	Cc1cc([N+](=O)[O-])ccc1C(=O)O
175 °C	C#CC[C@H](NC(=O)OCC1c2ccccc2-c2ccccc21)C(=O)O
141 to 148 °C	O=C(O)Cc1c[nH]c2ccc(Br)cc12
155 to 156 °C	Nc1nc(Br)c2ccccc2c1Cc1ccccc1
192 to 196 °C	O=C(O)C=Cc1c(Cl)cccc1Cl
124 to 126 °C	CCOC(=O)NC(=S)Nc1ncccc1C
57 to 59 °C	Cc1cc(Oc2ccc(C(F)(F)F)cc2[N+](=O)[O-])ccc1Cl
103 °C	NS(=O)(=O)Cc1ccccc1
291 °C	O=C(O)c1ccc2c(c1)C(=O)c1ccccc1C2=O
187 to 189 °C	O=C(O)c1cccnc1Oc1ccc(F)cc1

Second part, the molecule before the results:

Compound	melting point
CC(C)(C)OC(=O)N[C@H]1CCC[C@H]1C(=O)O (relative stereo)	90 to 94 °C
CCCCCCCCCCCC(=O)NC	68 °C
O=[N+]([O-])c1cc([N+](=O)[O-])c(C=C(Cl)c2ccccc2)cc1C=C(Cl)c1ccccc1	145 °C
CC(C)(C)S(=O)(=O)c1cnc(N2CCCC2)nc1N	199 to 201 °C
C1CCCCCCCCCCCCCCC1	61 °C
N#CC(C#N)=Cc1ccc(Cl)cc1	91 °C
Nc1cnn(-c2ccccc2)c(=O)c1Cl	206 °C
Brc1cncc(-c2nnn[nH]2)c1	226 °C
CC(C)N1C(=O)c2ccccc2NS1(=O)=O	140 °C
Cc1cc(C)n2cnnc2n1	165 to 167 °C
Cc1cc2nsnc2cc1Cl	85 to 86 °C
C=CC[Si](c1ccccc1)(c1ccccc1)c1ccccc1	88 to 90 °C
COc1cc(N)ncn1	100 °C
Nc1nn2c(C(F)(F)F)cc(=O)[nH]c2c1/N=N/c1c(Cl)cc(Cl)cc1Cl	275 °C
Brc1ccc(N(c2ccc(Br)cc2)c2ccc(Br)cc2)cc1	142 °C
C[Si](C)(C)CC(=O)O	41 °C
C#CCC	-126 °C
O=S(=O)(O)c1ccc(N=Nc2ccc(N=Nc3ccc(S(=O)(=O)O)cc3)cc2)cc1	157 °C
N#C/C(=C/c1ccc(Cl)cc1Cl)c1nc(-c2ccc([N+](=O)[O-])cc2)cs1	210 °C
c1cc2occc2c(N2CCNCC2)n1	58 to 60 °C

Compound	melting point
Cc1cc(O)c(C(C)(C)C)cc1Sc1cc(C(C)(C)C)c(O)cc1C	162 °C
CCC(=O)C(=O)O	33 °C
Cc1c(C)c(C)c(N)c(C)c1C	152 °C
CC(C)CCC[C@@H](C)[C@H]1CC[C@H]2[C@@H]3CC=C4C[C@@H](OCOc5ccc(Cl)cc5)CC[C@]4(C)[C@H]3CC[C@]12C	144 to 145 °C
CC(C)(C)NC(=O)C1CCC2C3CCC4NC(=O)C=CC4(C)C3CCC12C (centres undefined)	253 °C
OCC(F)(F)C(F)(F)C(F)(F)C(F)(F)CO	69 °C
CC1(C)CC2C(C(=O)O1)C2(C)C (centres undefined)	80 to 83 °C
OC1C(C2COC3(CCCCC3)O2)OC2OC3(CCCCC3)OC21 (centres undefined)	129 to 135 °C
COc1cc([N+](=O)[O-])c(Cl)cc1NC(C)=O	185 °C
C1CCC(CCCCC2CCCCC2)CC1	12 °C
CCCCC(=O)N(C)C	-51 °C
NCCP(=O)(O)O	296 °C
OC1C=C2CCN3Cc4cc5c(cc4C(C1O)C23)OCO5 (centres undefined)	280 °C
CC#CCCCCCCCC	-30.1 °C
CCOC(=O)C1=C(C)NC(C)=C(C(=O)OCC)C1C	132 to 139 °C
COC(=O)c1ccc(CBr)cc1	56 °C
CC12CCC(O)CC1CCC1C2CCC2(C)C(C3=CC(=O)OC3)C(O)CC12O (centres undefined)	234 °C
COC(=O)Cn1nnc(N2CCOCC2)n1	100 to 103 °C
Cc1cc(Br)cc(C)c1N=C=S	79.5 °C
Nc1ccc2c3c(cccc13)-c1ccccc1-2	116 °C

Compound	melting point
OCC#CCO	56 °C
Cn1ccnc1C=O	35 to 39 °C
O=C1c2ccccc2C(=O)N1CCS(=O)(=O)Cl	158 °C
CCC(C)(C)C(=O)O	-14 °C
CC12CC3(C)CC(C)(C1)CC(C(=O)O)(C2)C3	149 to 151 °C
Cc1ccc(C=Nc2n[nH]c(N=Cc3ccc(C)cc3)c2Cc2ccc(Cl)cc2)cc1	248 to 250 °C
Cc1[nH]c(=O)n(C(C)(C)C)c(=O)c1Cl	176 °C
O=C(O)CCCCCCCCCCCO	86.5 °C
O=C(Oc1c(F)c(F)c(F)c(F)c1F)c1ccccc1OC1CCOCC1	62 to 64 °C
CNc1ncnc(Cl)c1[N+](=O)[O-]	134 to 139 °C
CC(=O)C1CC1	-68.3 °C
CC1=C(C)C2=CC=C3C(O)=C(CC(C)O)C(=O)C(O)=C3C2(C)CC1=O (centres undefined)	187 °C
Cc1cc(C)cc(O[Si]23OCCN(CCO2)CCO3)c1	220 °C
N#Cc1ccc(C=Cc2ccc(C=Cc3ccc(C#N)cc3[N+](=O)[O-])cc2)c([N+](=O)[O-])c1	350 °C
CC(C)NCC1CCc2cc(CO)c([N+](=O)[O-])cc2N1 (centres undefined)	148 °C
Clc1c(Br)c(Br)c2c(c1Br)Oc1c(Br)c(Br)c(Cl)c(Br)c1O2	385 °C
O=C(Oc1c(F)c(F)c(F)c(F)c1F)Oc1c(F)c(F)c(F)c(F)c1F	48 to 51 °C
CC(CP(c1ccccc1)c1ccccc1)P(c1ccccc1)c1ccccc1 (centres undefined)	68 to 73 °C
COc1cc2c(cc1OC)C(C)=NCC2	103 to 106 °C
